Results as given in patent US20230135729A1, “COMPOUND WITH ANTI-SPORE ACTIVITY AND PHARMACEUTICAL COMPOSITION THEREOF” (priority 2020, published 2023).
In brackets after ≈: the same amount, converted by molar mass.

Assays:
Assay type in all cases: cell-based
[1] = test system: spores of ATCC BBA1870 strain; test: Inhibition of germination of C. difficile spores (MIC), strain ATCC BBA1870; conditions: Clostridioides difficile, ATCCBBA1870STRAIN, 1 h; strain 1870; sodium taurocholate as germinant, BHIS medium, 37° C., OD580 for 60 min; read-out: MIC (minimum concentration that completely inhibits spore germination)
Procedure, shortened: (§1)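 Spores heat-activated for 30 min at 65° C and washed, then preincubated with compound (10 mM DMSO stock) in BHIS at 37° C. Germination was triggered with sodium taurocholate, and OD580 was read each minute for 60 min. Inhibition = 100% − germination rate, from final vs initial OD relative to germinant-only controls.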

[2] = test system: spores of ATCC 630 strain; test: Inhibition of germination of C. difficile spores (MIC), strain ATCC 630; conditions: Clostridioides difficile, ATCC630, 1 h; strain 630; sodium taurocholate as germinant, BHIS medium, 37° C., OD580 for 60 min; read-out: MIC (minimum concentration that completely inhibits spore germination)
Procedure, shortened: as §1

[3] = test system: spores of ATCC 43255 strain; test: Inhibition of germination of C. difficile spores (MIC), strain ATCC 43255; conditions: Clostridioides difficile, ATCC43255, 1 h; strain 43255; sodium taurocholate as germinant, BHIS medium, 37° C., OD580 for 60 min; read-out: MIC (minimum concentration that completely inhibits spore germination)
Procedure, shortened: as §1

| Compound | MIC [1] [µM] | MIC [2] [µM] | MIC [3] [µM] |
| --- | --- | --- | --- |
| CC(C)[C@@H](NC(=O)C[C@@H](C)[C@H]1CC[C@H]2[C@@H]3[C@H](O)C[C@@H]4CC(=O)CC[C@]4(C)[C@H]3CC[C@]12C)c1ccc(Cl)s1 [Compound I-97] | 0.125 (≈ 0.0685 µg/mL) | 0.125 (≈ 0.0685 µg/mL) | 0.125 (≈ 0.0685 µg/mL) |
| CC(C)C(NC(=O)C[C@@H](C)[C@H]1CC[C@H]2[C@@H]3[C@H](O)C[C@@H]4CC(=O)CC[C@]4(C)[C@H]3CC[C@]12C)c1ccc(Br)s1 (stereo partly drawn) [Compound I-98] | 0.5 (≈ 0.296 µg/mL) | 0.5 (≈ 0.296 µg/mL) | 0.5 (≈ 0.296 µg/mL) |
| CC(C)[C@H](NC(=O)C[C@@H](C)[C@H]1CC[C@H]2[C@@H]3[C@H](O)C[C@@H]4CC(=O)CC[C@]4(C)[C@H]3CC[C@]12C)c1ccc(Br)s1 [Compound I-99] | > 256 | 256 (≈ 152 µg/mL) | 256 (≈ 152 µg/mL) |
| CC(C)[C@@H](NC(=O)C[C@@H](C)[C@H]1CC[C@H]2[C@@H]3[C@H](O)C[C@@H]4CC(=O)CC[C@]4(C)[C@H]3CC[C@]12C)c1ccc(Br)s1 [Compound I-100] | 0.25 (≈ 0.148 µg/mL) | 0.25 (≈ 0.148 µg/mL) | 0.25 (≈ 0.148 µg/mL) |
| CC(C)C(NC(=O)C[C@@H](C)[C@H]1CC[C@H]2[C@@H]3[C@H](O)C[C@@H]4CC(=O)CC[C@]4(C)[C@H]3CC[C@]12C)c1ccc(S(=O)(=O)O)s1 (stereo partly drawn) [Compound I-101] | 32 (≈ 19 µg/mL) | 32 (≈ 19 µg/mL) | 32 (≈ 19 µg/mL) |
| CC(C)[C@H](NC(=O)C[C@@H](C)[C@H]1CC[C@H]2[C@@H]3[C@H](O)C[C@@H]4CC(=O)CC[C@]4(C)[C@H]3CC[C@]12C)c1ccc(S(=O)(=O)O)s1 [Compound I-102] | > 256 | > 256 | > 256 |
| CC(C)[C@@H](NC(=O)C[C@@H](C)[C@H]1CC[C@H]2[C@@H]3[C@H](O)C[C@@H]4CC(=O)CC[C@]4(C)[C@H]3CC[C@]12C)c1ccc(S(=O)(=O)O)s1 [Compound I-103] | 16 (≈ 9.5 µg/mL) | 16 (≈ 9.5 µg/mL) | 16 (≈ 9.5 µg/mL) |
| CCC(NC(=O)C[C@@H](C)[C@H]1CC[C@H]2[C@@H]3[C@H](OS(=O)(=O)O)C[C@@H]4CC(=O)CC[C@]4(C)[C@H]3CC[C@]12C)c1ccc(Cl)s1 (stereo partly drawn) [Compound I-104] | 1 (≈ 0.614 µg/mL) | 1 (≈ 0.614 µg/mL) | 1 (≈ 0.614 µg/mL) |
| CC[C@H](NC(=O)C[C@@H](C)[C@H]1CC[C@H]2[C@@H]3[C@H](OS(=O)(=O)O)C[C@@H]4CC(=O)CC[C@]4(C)[C@H]3CC[C@]12C)c1ccc(Cl)s1 [Compound I-105] | > 256 | > 256 | > 256 |
| CC[C@@H](NC(=O)C[C@@H](C)[C@H]1CC[C@H]2[C@@H]3[C@H](OS(=O)(=O)O)C[C@@H]4CC(=O)CC[C@]4(C)[C@H]3CC[C@]12C)c1ccc(Cl)s1 [Compound I-106] | 0.5 (≈ 0.307 µg/mL) | 0.5 (≈ 0.307 µg/mL) | 0.25 (≈ 0.154 µg/mL) |
| CCC(NC(=O)C[C@@H](C)[C@H]1CC[C@H]2[C@@H]3[C@H](OS(=O)(=O)O)C[C@@H]4CC(=O)CC[C@]4(C)[C@H]3CC[C@]12C)c1ccc(Br)s1 (stereo partly drawn) [Compound I-107] | 1 (≈ 0.659 µg/mL) | 1 (≈ 0.659 µg/mL) | 1 (≈ 0.659 µg/mL) |
| CC[C@H](NC(=O)C[C@@H](C)[C@H]1CC[C@H]2[C@@H]3[C@H](OS(=O)(=O)O)C[C@@H]4CC(=O)CC[C@]4(C)[C@H]3CC[C@]12C)c1ccc(Br)s1 [Compound I-108] | > 256 | > 256 | > 256 |
| CC[C@@H](NC(=O)C[C@@H](C)[C@H]1CC[C@H]2[C@@H]3[C@H](OS(=O)(=O)O)C[C@@H]4CC(=O)CC[C@]4(C)[C@H]3CC[C@]12C)c1ccc(Br)s1 [Compound I-109] | 0.5 (≈ 0.329 µg/mL) | 0.5 (≈ 0.329 µg/mL) | 0.25 (≈ 0.165 µg/mL) |
| CC(C)C(NC(=O)C[C@@H](C)[C@H]1CC[C@H]2[C@@H]3[C@H](OS(=O)(=O)O)C[C@@H]4CC(=O)CC[C@]4(C)[C@H]3CC[C@]12C)c1ccc(Cl)s1 (stereo partly drawn) [Compound I-110] | 1 (≈ 0.628 µg/mL) | 1 (≈ 0.628 µg/mL) | 0.5 (≈ 0.314 µg/mL) |
| CC(C)[C@H](NC(=O)C[C@@H](C)[C@H]1CC[C@H]2[C@@H]3[C@H](OS(=O)(=O)O)C[C@@H]4CC(=O)CC[C@]4(C)[C@H]3CC[C@]12C)c1ccc(Cl)s1 [Compound I-111] | > 256 | > 256 | > 256 |
| CC(C)[C@@H](NC(=O)C[C@@H](C)[C@H]1CC[C@H]2[C@@H]3[C@H](OS(=O)(=O)O)C[C@@H]4CC(=O)CC[C@]4(C)[C@H]3CC[C@]12C)c1ccc(Cl)s1 [Compound I-112] | 0.5 (≈ 0.314 µg/mL) | 0.5 (≈ 0.314 µg/mL) | 0.25 (≈ 0.157 µg/mL) |

| Compound | MIC [1] [µM] | MIC [2] [µM] | MIC [3] [µM] |
| --- | --- | --- | --- |
| CC(C)C(NC(=O)C[C@@H](C)[C@H]1CC[C@H]2[C@@H]3[C@H](OS(=O)(=O)O)C[C@@H]4CC(=O)CC[C@]4(C)[C@H]3CC[C@]12C)c1ccc(Br)s1 (stereo partly drawn) [Compound I-113] | 1 (≈ 0.673 µg/mL) | 1 (≈ 0.673 µg/mL) | 0.5 (≈ 0.336 µg/mL) |
| CC(C)[C@H](NC(=O)C[C@@H](C)[C@H]1CC[C@H]2[C@@H]3[C@H](OS(=O)(=O)O)C[C@@H]4CC(=O)CC[C@]4(C)[C@H]3CC[C@]12C)c1ccc(Br)s1 [Compound I-114] | > 256 | > 256 | > 256 |
| CC(C)[C@@H](NC(=O)C[C@@H](C)[C@H]1CC[C@H]2[C@@H]3[C@H](OS(=O)(=O)O)C[C@@H]4CC(=O)CC[C@]4(C)[C@H]3CC[C@]12C)c1ccc(Br)s1 [Compound I-115] | 0.5 (≈ 0.336 µg/mL) | 0.5 (≈ 0.336 µg/mL) | 0.25 (≈ 0.168 µg/mL) |
| CCC(NC(=O)C[C@@H](C)[C@H]1CC[C@H]2[C@@H]3[C@H](O)[C@H](O)[C@@H]4C[C@H](O)CC[C@]4(C)[C@H]3CC[C@]12C)c1cccs1 (stereo partly drawn) [Compound I-116] | 16 (≈ 8.28 µg/mL) | 16 (≈ 8.28 µg/mL) | 16 (≈ 8.28 µg/mL) |
| CC[C@@H](NC(=O)C[C@@H](C)[C@H]1CC[C@H]2[C@@H]3[C@H](O)[C@H](O)[C@@H]4C[C@H](O)CC[C@]4(C)[C@H]3CC[C@]12C)c1ccc(Cl)s1 [Compound I-117] | 8 (≈ 4.42 µg/mL) | 4 (≈ 2.21 µg/mL) | 8 (≈ 4.42 µg/mL) |
| CCC(NC(=O)C[C@@H](C)[C@H]1CC[C@H]2[C@@H]3[C@H](O)[C@H](O)[C@@H]4C[C@H](O)CC[C@]4(C)[C@H]3CC[C@]12C)c1ccc(Br)s1 (stereo partly drawn) [Compound I-118] | 16 (≈ 9.55 µg/mL) | 8 (≈ 4.77 µg/mL) | 8 (≈ 4.77 µg/mL) |
| CC(C)C(NC(=O)C[C@@H](C)[C@H]1CC[C@H]2[C@@H]3[C@H](O)[C@H](O)[C@@H]4C[C@H](O)CC[C@]4(C)[C@H]3CC[C@]12C)c1cccs1 (stereo partly drawn) [Compound I-119] | 32 (≈ 17 µg/mL) | 32 (≈ 17 µg/mL) | 32 (≈ 17 µg/mL) |
| CC(C)[C@@H](NC(=O)C[C@@H](C)[C@H]1CC[C@H]2[C@@H]3[C@H](O)[C@H](O)[C@@H]4C[C@H](O)CC[C@]4(C)[C@H]3CC[C@]12C)c1ccc(Cl)s1 [Compound I-120] | 16 (≈ 9.06 µg/mL) | 16 (≈ 9.06 µg/mL) | 16 (≈ 9.06 µg/mL) |
| CC(C)[C@H](NC(=O)C[C@@H](C)[C@H]1CC[C@H]2[C@@H]3[C@H](O)[C@H](O)[C@@H]4C[C@H](O)CC[C@]4(C)[C@H]3CC[C@]12C)c1ccc(Br)s1 [Compound I-121] | > 256 | > 256 | > 256 |
| CC[C@@H](NC(=O)C[C@@H](C)[C@H]1CC[C@H]2[C@@H]3[C@H](O)[C@H](O)[C@@H]4CC(=O)CC[C@]4(C)[C@H]3CC[C@]12C)c1cccs1 [Compound I-122] | 128 (≈ 66 µg/mL) | 128 (≈ 66 µg/mL) | 128 (≈ 66 µg/mL) |
| CC[C@@H](NC(=O)C[C@@H](C)[C@H]1CC[C@H]2[C@@H]3[C@H](O)[C@H](O)[C@@H]4CC(=O)CC[C@]4(C)[C@H]3CC[C@]12C)c1ccc(Cl)s1 [Compound I-123] | 64 (≈ 35.2 µg/mL) | 64 (≈ 35.2 µg/mL) | 64 (≈ 35.2 µg/mL) |
| CC[C@@H](NC(=O)C[C@@H](C)[C@H]1CC[C@H]2[C@@H]3[C@H](O)[C@H](O)[C@@H]4CC(=O)CC[C@]4(C)[C@H]3CC[C@]12C)c1ccc(Br)s1 [Compound I-124] | 64 (≈ 38.1 µg/mL) | 64 (≈ 38.1 µg/mL) | 64 (≈ 38.1 µg/mL) |
| CCC(NC(=O)C[C@@H](C)[C@H]1CC[C@H]2[C@@H]3C[C@H](O)[C@@H]4C[C@H](O)CC[C@]4(C)[C@H]3CC[C@]12C)c1cccs1 (stereo partly drawn) [Compound I-125] | 2 (≈ 1 µg/mL) | 2 (≈ 1 µg/mL) | 2 (≈ 1 µg/mL) |
| CCC(NC(=O)C[C@@H](C)[C@H]1CC[C@H]2[C@@H]3C[C@H](O)[C@@H]4C[C@H](O)CC[C@]4(C)[C@H]3CC[C@]12C)c1ccc(Cl)s1 (stereo partly drawn) [Compound I-126] | 2 (≈ 1.07 µg/mL) | 1 (≈ 0.536 µg/mL) | 2 (≈ 1.07 µg/mL) |
| CC(C)C(NC(=O)C[C@@H](C)[C@H]1CC[C@H]2[C@@H]3C[C@H](O)[C@@H]4C[C@H](O)CC[C@]4(C)[C@H]3CC[C@]12C)c1cccs1 (stereo partly drawn) [Compound I-127] | 8 (≈ 4.13 µg/mL) | 4 (≈ 2.06 µg/mL) | 8 (≈ 4.13 µg/mL) |
| CC(C)[C@@H](NC(=O)C[C@@H](C)[C@H]1CC[C@H]2[C@@H]3C[C@H](O)[C@@H]4C[C@H](O)CC[C@]4(C)[C@H]3CC[C@]12C)c1ccc(Br)s1 [Compound I-128] | 2 (≈ 1.19 µg/mL) | 1 (≈ 0.595 µg/mL) | 2 (≈ 1.19 µg/mL) |
